Assay results published in the NIST ThermoML archive (doi:10.1021/je100734t).
Several values for one entry are separate records, joined by “and”; a condition that tells them apart may be missing. Equal values may be shown once.

Legend:
[1] = 101 kPa, Liquid; for speed of sound: Pulse-echo method
[2] = xn = mol fraction of the nth substance listed; settings: 101 kPa, Liquid; for speed of sound: Pulse-echo method

CCCCCCCCCCO [decan-1-ol]
[1]
Settings | mass density [kg/m3] | speed of sound [m/s]
293.15 K | 829.98 | 1396
303.15 K | 823.1 | 1362
313.15 K | 816.27 | 1329

Cc1ccccc1C [1,2-dimethylbenzene]
[1]
Settings | mass density [kg/m3] | speed of sound [m/s]
293.15 K | 879.49 | 1369
303.15 K | 871.14 | 1328
313.15 K | 862.59 | 1289

CCc1ccccc1 [ethylbenzene] + CCCCCCCCCCO
[2], x1 = 1
Settings | mass density [kg/m3] | speed of sound [m/s]
293.15 K | 867.14 | 1340
303.15 K | 858.37 | 1298
313.15 K | 849.55 | 1257

Cc1ccc(C)cc1 [1,4-dimethylbenzene]
[1]
Settings | mass density [kg/m3] | speed of sound [m/s]
293.15 K | 860.96 | 1330
303.15 K | 852.25 | 1289
313.15 K | 843.51 | 1249

CCc1ccccc1 [ethylbenzene]
[1]
Settings | mass density [kg/m3] | speed of sound [m/s]
293.15 K | 867.14 | 1340
303.15 K | 858.37 | 1298
313.15 K | 849.55 | 1257

Cc1ccc(C)cc1 [1,4-dimethylbenzene] + CCCCCCCCCCO
[2], x1 = 1
Settings | mass density [kg/m3] | speed of sound [m/s]
293.15 K | 860.96 | 1330
303.15 K | 852.25 | 1289
313.15 K | 843.51 | 1249

Cc1cccc(C)c1 [1,3-dimethylbenzene]
[1]
Settings | mass density [kg/m3] | speed of sound
293.15 K | 864.18 | 1341 m/s and 1340 m/s
303.15 K | 855.56 | 1300 m/s
313.15 K | 846.9 | 1259 m/s

Cc1ccc(C)cc1 [1,4-dimethylbenzene] + CCCCCCCCCO
[2], x1 = 1
Settings | mass density [kg/m3] | speed of sound [m/s]
293.15 K | 860.96 | 1330
303.15 K | 852.25 | 1289
313.15 K | 843.51 | 1249

CCc1ccccc1 [ethylbenzene] + CCCCCCCCCO
[2], x1 = 1
Settings | mass density [kg/m3] | speed of sound [m/s]
293.15 K | 867.14 | 1340
303.15 K | 858.37 | 1298
313.15 K | 849.55 | 1257

Cc1ccccc1C [1,2-dimethylbenzene] + CCCCCCCCCCO
[2], x1 = 1
Settings | mass density [kg/m3] | speed of sound [m/s]
293.15 K | 879.49 | 1369
303.15 K | 871.14 | 1328
313.15 K | 862.59 | 1289

CCCCCCCCCO [nonan-1-ol]
[1]
Settings | mass density [kg/m3] | speed of sound [m/s]
293.15 K | 827.7 | 1381
303.15 K | 820.82 | 1347
313.15 K | 813.88 | 1314

CCCCCCCCCCO [decan-1-ol] + Cc1cccc(C)c1
[2], x2 = 0
Settings | mass density [kg/m3] | speed of sound [m/s]
293.15 K | 829.98 | 1396
303.15 K | 823.1 | 1362
313.15 K | 816.27 | 1329

Cc1ccccc1C [1,2-dimethylbenzene] + CCCCCCCCCO
[2], x1 = 1
Settings | mass density [kg/m3] | speed of sound [m/s]
293.15 K | 879.49 | 1369
303.15 K | 871.14 | 1328
313.15 K | 862.59 | 1289

Cc1cccc(C)c1 [1,3-dimethylbenzene] + CCCCCCCCCO
[2], x1 = 1
Settings | mass density [kg/m3] | speed of sound [m/s]
293.15 K | 864.18 | 1341
303.15 K | 855.56 | 1300
313.15 K | 846.9 | 1259
